Reference: US9840500B2, “Compounds as dual inhibitors of histone methyltransferases and DNA methyltransferases” (FUNDACIÓN PARA LA INVESTIGACIÓN MÉDICA APLICADA, priority 2014, dated 2017)
Read-outs that look alike come from different tables or passages of the source.

What was measured:
CEMO-1 = experiment: Cell proliferation assay, CEMO-1 (ALL); type: cell-based, human
Protocol: (§1) Cell proliferation was analyzed after 48 hours of in vitro treatment using the CellTiter 96 Aqueous One Solution Cell Proliferation Assay (Promega, Madison, Wis.). This is a colorimetric method for determining the number of viable cells in proliferation.
(§2) For the assay, suspension cells were cultured by triplicate at a density of 1×10^6 cells/ml in 96-well plates (100.000 cells/well, 100 μl/well), except for OCILY-3 and OCILY-10 cell lines which were cultured at a density of 0.5×10^6 cells/ml (50.000 cells/well, 100 μl/well) and for HepG2, Hep3B and PLC/PRF/5 cell ines which were cultured at a density of 3000 cells/well, 100 μl/well). Adherent cells were obtained from 80-90% confluent flasks and 100 μl of cells were seeded at a density of 5000 cells/well in 96-well plates by triplicate. Before addition of the compounds, adherent cells were allowed to attach to the bottom of the wells for 12 hours. In all cases, only the 60 inner wells were used to avoid any border effects.
(§3) After 48 hours of treatment, plates with suspension cells were centrifuged at 800 g for 10 minutes and medium was removed. The plates with adherent cells were flicked to remove medium. Then, cells were incubated with 100 ul/well of medium and 20 ul/well of CellTiter 96 Aqueous One Solution reagent. After 1-3 hours of incubation at 37° C., absorbance was measured at 490 nm in a 96-well plate reader. The background absorbance was measured in wells with only cell line medium and solution reagent. Data was calculated as a percentage of total absorbance of treated cell/absorbance of non treated cells.

LAL-CUN-2 = experiment: Cell proliferation assay, LAL-CUN-2 (ALL); type: cell-based
Protocol: as §1, §2, §3

OCI-AML-2 = experiment: Cell proliferation assay, OCI-AML-2 (AML); type: cell-based
Protocol: as §1, §2, §3
(§4) Compounds 3-04 and 3-07 were tested against different solid tumour and oncohematological cell lines using the cell proliferation protocol described above.

MV411 = experiment: Cell proliferation assay, MV411 / MV4-11 (AML); type: cell-based
Protocol: as §1, §2, §3, §4

JJN3 = experiment: Cell proliferation assay, JJN3 (MM); type: cell-based
Protocol: as §1, §2, §3

U266 = experiment: Cell proliferation assay, U266 (MM); type: cell-based
Protocol: as §1, §2, §3

BJ human fibroblasts [1] = experiment: iPSC reprogramming of BJ human fibroblasts with lentiviral vectors (O:S:K:M); type: cell-based; conditions: compound concentration 200 nM
Excerpt: The used reprogramming system consisted in four independent doxycycline inducible lentiviral vectors (FUW-Tet-O based vectors) coding for the human OCT4 (addgene, ref#20726), SOX2 (addgene, ref#20724), KLF4 (addgene, ref#20725) and cMYC (addgene, ref#20723) transcription factors (O:S:K:M) Vesicular Stomatitis Virus G (VSVG)-coated lentiviruses were generated in 293T cells as described previously (Tiscornia et al., Nat Protoc. 2006; 1(1):241-5.). Briefly, 293T cells (ATCC, CRL-3216) were transfected with FUW-TetO lentiviral vectors referred above along with packaging plasmids psPAX2 (addgene, ref#12260) and pMD2.G (addgene, ref#12259) under the same conditions as those disclosed by Tiscornia et al, supra. […]
• Day 2: Second infection of BJ cells (same conditions that first infection). • Day 3: Replate BJ cells in 2×175 cm^2 culture flask in fresh FCM. • Day 4: Incubate 1×175 cm^2 flask with 0.2 μM or 0.1 μM of test compound and the other flask just with FCM. Compound concentrations were selected according to the determined GI50 in BJ human fibroblasts, in order to avoid cytotoxicity. […]
Reprogramming efficiency was quantified four weeks after infection. Presence of ESC-like colonies was detected by alkaline phosphatase (AP) staining using Leukocyte Alkaline Phosphatase Kit (Sigma) according to the manufacturer's protocol.

BJ human fibroblasts [2] = experiment: iPSC reprogramming of BJ human fibroblasts with retroviral vectors (O:S); type: cell-based; conditions: compound concentration 200 nM
DNMT1 [3] = target: T1, DNMT1 (Homo sapiens, UniProt P26358); experiment: DNMT1 inhibition reported in the literature; type: biochemical; conditions: read-out: IC50 against DNMT1
Target sequence in this assay (P26358 whole entry, species assumed): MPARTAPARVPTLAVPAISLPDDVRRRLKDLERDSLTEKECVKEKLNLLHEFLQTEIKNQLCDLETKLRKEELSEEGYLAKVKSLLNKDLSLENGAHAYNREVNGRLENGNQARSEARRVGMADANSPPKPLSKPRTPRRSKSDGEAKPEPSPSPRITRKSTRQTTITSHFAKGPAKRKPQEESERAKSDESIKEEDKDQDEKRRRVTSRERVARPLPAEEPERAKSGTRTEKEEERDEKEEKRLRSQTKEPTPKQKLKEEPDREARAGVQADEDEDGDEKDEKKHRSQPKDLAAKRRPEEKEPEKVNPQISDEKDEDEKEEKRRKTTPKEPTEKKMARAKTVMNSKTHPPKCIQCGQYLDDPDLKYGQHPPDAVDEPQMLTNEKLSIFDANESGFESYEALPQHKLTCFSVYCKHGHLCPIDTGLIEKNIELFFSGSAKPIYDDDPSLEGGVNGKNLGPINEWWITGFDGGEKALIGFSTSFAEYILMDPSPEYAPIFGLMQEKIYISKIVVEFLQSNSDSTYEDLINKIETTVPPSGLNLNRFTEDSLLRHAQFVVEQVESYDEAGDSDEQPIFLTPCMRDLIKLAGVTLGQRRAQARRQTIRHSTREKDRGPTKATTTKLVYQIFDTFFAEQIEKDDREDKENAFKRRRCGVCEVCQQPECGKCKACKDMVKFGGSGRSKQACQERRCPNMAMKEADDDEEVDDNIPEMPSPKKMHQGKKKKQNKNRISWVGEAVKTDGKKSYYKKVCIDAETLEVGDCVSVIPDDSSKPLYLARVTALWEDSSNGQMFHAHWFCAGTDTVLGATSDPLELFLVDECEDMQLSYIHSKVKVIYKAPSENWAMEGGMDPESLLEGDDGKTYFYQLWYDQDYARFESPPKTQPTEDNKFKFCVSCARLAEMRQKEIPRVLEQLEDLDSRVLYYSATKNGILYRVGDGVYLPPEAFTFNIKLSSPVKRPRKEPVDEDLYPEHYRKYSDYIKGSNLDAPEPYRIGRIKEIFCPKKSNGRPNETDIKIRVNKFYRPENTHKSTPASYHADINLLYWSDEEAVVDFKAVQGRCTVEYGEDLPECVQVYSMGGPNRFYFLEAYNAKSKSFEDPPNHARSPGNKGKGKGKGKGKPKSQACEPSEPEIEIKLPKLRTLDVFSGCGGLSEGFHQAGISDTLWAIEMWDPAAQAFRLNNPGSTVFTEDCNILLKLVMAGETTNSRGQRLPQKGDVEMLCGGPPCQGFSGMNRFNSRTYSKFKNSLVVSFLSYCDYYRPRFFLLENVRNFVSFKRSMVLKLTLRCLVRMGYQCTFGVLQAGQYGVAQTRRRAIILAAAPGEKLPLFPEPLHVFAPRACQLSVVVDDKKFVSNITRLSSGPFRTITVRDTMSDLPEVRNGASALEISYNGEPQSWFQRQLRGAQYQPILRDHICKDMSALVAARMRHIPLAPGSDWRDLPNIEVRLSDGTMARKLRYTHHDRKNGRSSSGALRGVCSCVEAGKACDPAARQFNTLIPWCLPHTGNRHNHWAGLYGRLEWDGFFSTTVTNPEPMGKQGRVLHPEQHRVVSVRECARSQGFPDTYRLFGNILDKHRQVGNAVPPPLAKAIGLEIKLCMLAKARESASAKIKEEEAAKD

DNMT3A = DNMT3A (Homo sapiens, UniProt Q9Y6K1); experiment: DNMT3A inhibition reported in the literature; type: biochemical; conditions: read-out: IC50 against DNMT3A
human G9a enzyme = target: T2, human G9a enzyme (Homo sapiens, UniProt Q96KQ7); experiment: G9a enzyme activity assay (TR-FRET); type: biochemical
T2 sequence (Q96KQ7 1-1210): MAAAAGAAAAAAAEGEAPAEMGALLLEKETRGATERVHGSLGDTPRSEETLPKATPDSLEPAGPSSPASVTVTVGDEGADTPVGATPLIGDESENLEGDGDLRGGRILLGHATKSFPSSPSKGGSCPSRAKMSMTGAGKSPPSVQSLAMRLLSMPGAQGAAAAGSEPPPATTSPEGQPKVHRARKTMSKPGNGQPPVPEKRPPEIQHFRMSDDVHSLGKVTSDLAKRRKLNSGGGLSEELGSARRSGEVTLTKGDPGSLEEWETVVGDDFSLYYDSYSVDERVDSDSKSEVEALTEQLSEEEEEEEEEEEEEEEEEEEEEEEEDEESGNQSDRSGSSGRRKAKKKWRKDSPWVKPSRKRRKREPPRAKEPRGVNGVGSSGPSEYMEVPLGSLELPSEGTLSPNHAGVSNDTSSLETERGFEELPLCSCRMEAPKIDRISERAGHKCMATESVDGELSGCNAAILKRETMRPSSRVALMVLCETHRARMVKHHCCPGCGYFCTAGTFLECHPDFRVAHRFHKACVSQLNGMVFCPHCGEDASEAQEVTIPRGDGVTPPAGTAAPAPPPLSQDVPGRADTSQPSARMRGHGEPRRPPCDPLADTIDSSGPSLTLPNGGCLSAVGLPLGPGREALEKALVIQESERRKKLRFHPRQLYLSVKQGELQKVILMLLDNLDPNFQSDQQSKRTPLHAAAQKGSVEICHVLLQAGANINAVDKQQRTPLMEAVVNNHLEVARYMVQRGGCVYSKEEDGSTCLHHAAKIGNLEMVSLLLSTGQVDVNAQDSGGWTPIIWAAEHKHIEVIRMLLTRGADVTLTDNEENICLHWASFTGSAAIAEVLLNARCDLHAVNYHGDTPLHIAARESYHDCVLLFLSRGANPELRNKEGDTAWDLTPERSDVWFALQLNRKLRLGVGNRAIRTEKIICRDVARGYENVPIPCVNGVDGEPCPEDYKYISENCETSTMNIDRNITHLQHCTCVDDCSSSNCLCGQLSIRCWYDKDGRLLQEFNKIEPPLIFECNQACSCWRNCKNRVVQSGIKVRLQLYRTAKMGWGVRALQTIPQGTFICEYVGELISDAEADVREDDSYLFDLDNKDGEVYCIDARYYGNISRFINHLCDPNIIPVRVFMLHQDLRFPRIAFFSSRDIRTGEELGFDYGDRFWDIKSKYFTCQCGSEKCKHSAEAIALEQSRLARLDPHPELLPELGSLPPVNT
Method in brief: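 Sf9-expressed human G9a (added as 1 nM solution), 0.5% DMSO final, with streptavidin-XL665 at 16 μM final and europium cryptate donor. After 1 h at room temperature, the 665/620 nm ratio was read against vehicle and no-enzyme controls. IC50 from a 4-parameter inhibition fit.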

DNMT1 [4] = target: T1, DNMT1; experiment: DNMT1 enzyme activity assay (TR-FRET, EPIgeneous methyltransferase assay); type: biochemical
Method in brief: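 Human DNMT1, added at 1 nM, with 0.5% final DMSO; activity read by TR-FRET detection of the product SAH, where signal falls as SAH rises. The value is the 665/620 nm ratio, and IC50 comes from a 4-parameter inhibition fit.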
Target sequence in this assay (P26358 whole entry): as the sequence (P26358 whole entry, species assumed) above

OCI-Ly3 = experiment: Cell proliferation assay, OCI-Ly3 (ABC-DLBCL); type: cell-based; conditions: Homo sapiens, 48 hours of treatment, Table 3
Protocol: as §1, §2, §3

OCI-Ly10 = experiment: Cell proliferation assay, OCI-Ly10 (ABC-DLBCL); type: cell-based; conditions: Homo sapiens, 48 hours of treatment, Table 3
Protocol: as §1, §2, §3

HepG2 = experiment: Cell proliferation assay, HepG2 (HCC); type: cell-based; conditions: Homo sapiens, 48 hours of treatment, Table 3
Protocol: as §1, §2, §3

Hep3B = experiment: Cell proliferation assay, Hep3B (HCC); type: cell-based; conditions: Homo sapiens, 48 hours of treatment, Table 3
Protocol: as §1, §2, §3

PLC/PRF/5 = experiment: Cell proliferation assay, PLC/PRF/5 (HCC); type: cell-based; conditions: Homo sapiens, 48 hours of treatment, Table 3
Protocol: as §1, §2, §3

DNMT1 [5] = target: T1, DNMT1; conditions: reported in the literature (Vedadi 2011; Liu 2013); read-out: IC50 against DNMT1; cited from earlier work
Target sequence in this assay (P26358 whole entry, species assumed): as the sequence (P26358 whole entry, species assumed) above

[6] = Homo sapiens, ALL, Table 5 comparison
[7] = Homo sapiens, OCI-AML2, Table 5 comparison
[8] = Homo sapiens, MV4-11, Table 5 comparison
[9] = Homo sapiens, JJN-3, Table 5 comparison
[10] = Homo sapiens, U-266, Table 5 comparison

Sequence of DNMT3A (Q9Y6K1 whole entry, looked up, species assumed): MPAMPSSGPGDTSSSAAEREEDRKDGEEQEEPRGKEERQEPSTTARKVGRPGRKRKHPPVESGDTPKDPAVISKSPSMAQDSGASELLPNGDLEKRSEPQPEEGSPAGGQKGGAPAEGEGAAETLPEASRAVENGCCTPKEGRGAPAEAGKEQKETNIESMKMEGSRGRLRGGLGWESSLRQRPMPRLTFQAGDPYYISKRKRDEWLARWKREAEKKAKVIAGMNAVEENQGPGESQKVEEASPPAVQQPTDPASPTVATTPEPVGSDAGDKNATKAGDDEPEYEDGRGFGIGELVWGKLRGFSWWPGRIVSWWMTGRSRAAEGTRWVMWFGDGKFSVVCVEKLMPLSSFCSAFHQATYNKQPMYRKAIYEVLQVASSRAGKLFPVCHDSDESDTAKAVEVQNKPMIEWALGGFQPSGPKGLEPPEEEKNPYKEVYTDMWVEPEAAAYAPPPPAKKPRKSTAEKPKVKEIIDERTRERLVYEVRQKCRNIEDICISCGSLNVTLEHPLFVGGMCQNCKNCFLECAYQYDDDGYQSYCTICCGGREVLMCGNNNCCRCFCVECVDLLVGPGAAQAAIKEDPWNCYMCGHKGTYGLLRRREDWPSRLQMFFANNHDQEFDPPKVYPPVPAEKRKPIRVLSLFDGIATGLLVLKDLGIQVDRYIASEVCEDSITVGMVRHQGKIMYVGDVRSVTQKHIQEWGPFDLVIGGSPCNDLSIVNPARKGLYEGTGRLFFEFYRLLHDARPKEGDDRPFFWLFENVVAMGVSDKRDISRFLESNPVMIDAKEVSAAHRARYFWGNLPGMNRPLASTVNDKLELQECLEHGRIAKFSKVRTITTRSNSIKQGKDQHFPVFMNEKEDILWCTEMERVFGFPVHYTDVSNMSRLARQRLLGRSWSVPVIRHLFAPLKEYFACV

What does the source list for Nc1ncn([C@@H]2O[C@H](CO)[C@@H](O)[C@H]2O)c(=O)n1 [5-azacytidine, reference compound]?
GI50 (CEMO-1; [6]): 1 to 10 µM; GI50 (LAL-CUN-2; ALL, Table 5 comparison): ≥ 10 µM; GI50 (OCI-AML-2; [7]): ≥ 10 µM; GI50 (MV411; [8]): 1 to 10 µM; GI50 (JJN3; [9]): ≥ 10 µM; GI50 (U266; [10]): 1 to 10 µM

With COc1cc2nc(N3CCCN(C)CC3)nc(NC3CCN(Cc4ccccc4)CC3)c2cc1OC [BIX01294, N-(1-benzyl-4-piperidyl)-6,7-dimethoxy-2-(4-methyl-1,4-diazepan-1-yl)quinazolin-4-amine] as the molecule, how does the GI50 (CEMO-1; [6]) read?
Its GI50 is 1 to 10 µM.

And the GI50 (LAL-CUN-2; ALL, Table 5 comparison)?
Its GI50 is 1 to 10 µM.

And the GI50 (OCI-AML-2; [7])?
The GI50 was 1 to 10 µM.

And the GI50 (MV411; [8])?
Its GI50 is at least 10 µM.

And the GI50 (JJN3; [9])?
Its GI50 is at least 10 µM.

And the GI50 (U266; [10])?
Its GI50 is at least 10 µM.

And the “Folding respect to untreated (reprogramming efficiency, AP+ colonies)” value (BJ human fibroblasts [1])?
The value was 1.29.

And the “Folding respect to untreated (reprogramming efficiency, AP+ colonies)” value (BJ human fibroblasts [2])?
The value was 1.04.

What about the IC50 (DNMT1 [3]) of the same molecule?
The IC50 was over 100 µM.

What about the IC50 (DNMT3A) of the same molecule?
The IC50 was over 100 µM.

For COc1cc2c(NC3CCN(C4CC4)CC3)cc(-c3ccc(C)o3)nc2cc1OCCCN1CCCC1 [Compound 3-20], which IC50 (human G9a enzyme) is on record?
The IC50 was under 0.1 µM.

And the IC50 (DNMT1 [4])?
The IC50 was 0.1 to 0.5 µM.

What about the GI50 (CEMO-1; Homo sapiens, 48 hours of treatment, Table 3) of the same molecule?
Its GI50 is 0.1 to 1 µM.

And the GI50 (LAL-CUN-2; 48 hours of treatment, Table 3)?
The GI50 was 1 to 10 µM.

And the GI50 (OCI-Ly3)?
The GI50 was 0.1 to 1 µM.

And the GI50 (OCI-Ly10)?
Its GI50 is 0.1 to 1 µM.

What about the GI50 (HepG2) of the same molecule?
The GI50 was 0.1 to 1 µM.

What about the GI50 (Hep3B) of the same molecule?
Its GI50 is 0.1 to 1 µM.

And the GI50 (PLC/PRF/5)?
Its GI50 is 0.1 to 1 µM.

With Nc1ncn([C@H]2C[C@H](O)[C@@H](CO)O2)c(=O)n1 [Decitabine, reference compound] as the molecule, how does the GI50 (CEMO-1; ALL, Table 5 comparison) read?
The GI50 was 0.1 to 1 µM.

And the GI50 (LAL-CUN-2; ALL, Table 5 comparison)?
Its GI50 is at least 10 µM.

And the GI50 (OCI-AML-2; Table 5 comparison)?
The GI50 was at least 10 µM.

What about the GI50 (MV411; Table 5 comparison) of the same molecule?
The GI50 was at least 10 µM.

What about the GI50 (JJN3; Table 5 comparison) of the same molecule?
The GI50 was at least 10 µM.

And the GI50 (U266; Table 5 comparison)?
Its GI50 is at least 10 µM.

Which GI50 (CEMO-1; [6]) does the source give for COc1cc2c(NC3CCN(C(C)C)CC3)nc(C3CCCCC3)nc2cc1OCCCN1CCCC1 [UNC0638, 2-cyclohexyl-N-(1-isopropyl-4-piperidyl)-6-methoxy-7-(3-pyrrolidin-1-ylpropoxy)quinazolin-4-amine, reference compound] here?
Its GI50 is 1 to 10 µM.

What about the GI50 (LAL-CUN-2; ALL, Table 5 comparison) of the same molecule?
Its GI50 is 1 to 10 µM.

What about the GI50 (OCI-AML-2; [7]) of the same molecule?
Its GI50 is 1 to 10 µM.

And the GI50 (MV411; [8])?
The GI50 was at least 10 µM.

What about the GI50 (JJN3; [9]) of the same molecule?
Its GI50 is at least 10 µM.

What about the GI50 (U266; [10]) of the same molecule?
Its GI50 is at least 10 µM.

With COc1cc2c(NC3CCN(C(C)C)CC3)nc(N3CCC(F)(F)CC3)nc2cc1OCCCN1CCCC1 [UNC0642, 2-(4,4-difluoro-1-piperidyl)-N-(1-isopropyl-4-piperidyl)-6-methoxy-7-(3-pyrrolidin-1-ylpropoxy)quinazolin-4-amine] as the molecule, how does the IC50 (DNMT1 [5]) read?
Its IC50 is over 50 µM.
